The source of these data is ChEMBL document CHEMBL1142749, “P2-P3 conformationally constrained ketoamide-based inhibitors of cathepsin K” (Bioorg Med Chem Lett, 2005).

Data set [1] in a line: The equilibrium solubility exhibited in a fasted state-simulated intestinal fluid at pH 6.8. The following applies: human. The class given is ADME.
Data set [2] has as its target T1, Cathepsin K (Homo sapiens, UniProt P43235).
T1 sequence (P43235 whole entry): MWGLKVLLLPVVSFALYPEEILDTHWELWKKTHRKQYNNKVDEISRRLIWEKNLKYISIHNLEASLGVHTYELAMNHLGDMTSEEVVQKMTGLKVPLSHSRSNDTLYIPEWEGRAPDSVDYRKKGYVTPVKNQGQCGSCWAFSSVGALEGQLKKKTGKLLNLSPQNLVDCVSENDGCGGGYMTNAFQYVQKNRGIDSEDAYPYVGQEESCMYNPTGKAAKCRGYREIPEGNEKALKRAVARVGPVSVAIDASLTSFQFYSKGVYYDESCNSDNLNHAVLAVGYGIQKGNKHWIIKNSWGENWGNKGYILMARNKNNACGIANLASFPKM
The experiment in a line: Inhibition of 10 µM Cbz-Phe-Arg-AMC binding to human cathepsin K in fluorescence assay with 100 mM NaOAc.

Data set [3] can be described thus: Oral bioavailability (i.v. administration). It counts as ADME, organism-based. The following applies: rat, in vivo.
Data set [4] is described as follows: Terminal half-life dosed as a solution in male Han Wistar rat administered i.v. The class given is ADME, organism-based. The following applies: in vivo, iv; for half-life: male, Han Wistar.
A short description of data set [5]: The total clearance after i.v. administration. It counts as ADME, organism-based. The following applies: rat, in vivo, iv.
Data set [6] has as its target Cathepsin S (Homo sapiens, UniProt P25774). The experiment in a line: Inhibition of 10 µM Cbz-Val-Val-Arg-AMC binding to human cathepsin S in fluorescence assay with 100 mM NaOAc.
Data set [7] can be described thus: Steady-state volume of distribution of compound was determined after i.v. administration. It counts as ADME, organism-based. The following applies: rat, in vivo, iv; for Vd: read-out: VSS.
The target of data set [8] is Procathepsin L (Homo sapiens, UniProt P07711). The experiment in a line: Inhibition of 5 µM Cbz-Phe-Arg-AMC bindign to human cathepsin L activity in fluorescence assay with 100 mM NaOAc.
Chain of Procathepsin L (P07711 whole entry): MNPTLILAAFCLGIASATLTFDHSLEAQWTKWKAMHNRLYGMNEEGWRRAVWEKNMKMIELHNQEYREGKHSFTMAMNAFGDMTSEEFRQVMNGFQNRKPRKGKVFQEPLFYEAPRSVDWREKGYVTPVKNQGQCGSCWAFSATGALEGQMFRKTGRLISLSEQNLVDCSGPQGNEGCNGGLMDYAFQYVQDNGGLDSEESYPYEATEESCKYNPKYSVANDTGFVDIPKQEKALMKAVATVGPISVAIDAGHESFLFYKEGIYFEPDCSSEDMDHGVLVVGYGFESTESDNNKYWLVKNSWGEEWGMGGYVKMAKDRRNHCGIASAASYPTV
The target of data set [9] is Cathepsin B (Homo sapiens, UniProt P07858). The experiment in a line: Inhibition of 10 µM Cbz-Phe-Arg-AMC binding to human cathepsin B activity in fluorescence assay with 100 mM NaOAc.
Data set [10] concerns the target T2, Cathepsin L2 (Homo sapiens, UniProt O60911).
T2 sequence (O60911 whole entry): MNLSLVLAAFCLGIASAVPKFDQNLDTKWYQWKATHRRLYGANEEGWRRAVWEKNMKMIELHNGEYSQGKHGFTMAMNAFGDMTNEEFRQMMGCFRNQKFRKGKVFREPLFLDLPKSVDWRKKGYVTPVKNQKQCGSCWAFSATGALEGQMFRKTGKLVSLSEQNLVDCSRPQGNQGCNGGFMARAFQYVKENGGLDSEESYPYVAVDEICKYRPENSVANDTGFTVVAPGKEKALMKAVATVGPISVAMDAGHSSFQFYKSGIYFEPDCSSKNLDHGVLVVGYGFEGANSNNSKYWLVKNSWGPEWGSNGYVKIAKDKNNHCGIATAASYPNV
The experiment in a line: Inhibition of 2 µM Cbz-Phe-Arg-AMC binding to human cathepsin V activity in fluorescence assay with 100 mM NaOAc.

In brackets after ≈: the same amount, converted by molar mass.

Chain of Cathepsin S (P25774 whole entry): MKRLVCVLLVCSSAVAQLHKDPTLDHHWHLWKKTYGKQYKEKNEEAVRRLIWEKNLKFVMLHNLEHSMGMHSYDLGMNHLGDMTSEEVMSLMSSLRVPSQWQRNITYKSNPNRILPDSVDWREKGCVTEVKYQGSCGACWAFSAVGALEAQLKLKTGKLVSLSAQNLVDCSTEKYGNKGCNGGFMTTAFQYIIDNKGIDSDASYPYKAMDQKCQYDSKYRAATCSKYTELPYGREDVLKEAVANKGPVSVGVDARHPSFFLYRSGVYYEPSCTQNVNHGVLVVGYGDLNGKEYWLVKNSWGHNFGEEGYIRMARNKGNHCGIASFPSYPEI

Take `CCCC[C@H](NC(=O)O[C@H](Cc1nnc(-c2ccc(F)cc2)o1)C(C)(C)C)C(=O)C(=O)Nc1ccn[nH]1`: the solubility thermodynamic in [1] (read-out: FS-SIF) is 58 µg/mL (≈ 113 µM). In addition, the 50% inhibitory concentration (IC50) in data set [2] turned out to be 0.0049 µM; in data set [6] it was 110 µM; in data set [8], 3800 µM; in [9], 3500 µM; in data set [10], 230 µM. Further, in [3], the bioavailability is 88%. The molecule also had a half-life in data set [4] of 2.5 h. In [5], this molecule yielded a clearance of 33 mL/min/kg. For the same molecule, the Vd in data set [7] was determined as 3.6 L/kg.

Take `CCCC[C@H](NC(=O)O[C@H](Cc1nnc(-c2ccccc2)o1)C(C)(C)C)C(=O)C(=O)N[C@H](C)c1ccccc1`: the concentration for half-maximal inhibition (IC50) amounted to 0.75 µM in data set [6], 10 µM in [8], 12 µM in data set [9] and 1.6 µM in data set [10].

Take `CCCC[C@H](NC(=O)O[C@H](Cn1cnc(-c2ccc(C(F)(F)F)cc2)c1)C(C)(C)C)C(=O)C(=O)Nc1nccs1`: the solubility thermodynamic in data set [1] (read-out: FS-SIF) was 48 µg/mL (≈ 82.8 µM). The molecule also gave a bioavailability in [3] of 43%. The molecule further had a half-life in [4] of 4.67 h. In [5], this molecule yielded a clearance of 15 mL/min/kg. Further, the IC50 was 19 µM in data set [6], 1000 µM in data set [8], 870 µM in data set [9] and 36 µM in data set [10]. Further, the Vd in data set [7] stood at 1.8 L/kg.

On to `CCCC[C@H](NC(=O)O[C@H](Cc1nnc(-c2ccc(C(F)(F)F)cc2)o1)C(C)(C)C)C(=O)C(=O)Nc1ccn[nH]1`, for which, in data set [1] (read-out: FS-SIF), the solubility thermodynamic was 61 µg/mL (≈ 108 µM). The bioavailability in data set [3] came out at 50%. The same molecule showed a half-life in data set [4] of 8.83 h. Besides, the clearance in data set [5] came to 11 mL/min/kg. The half-maximal inhibitory concentration (IC50) in [6] is 0.52 µM; in [8], 69 µM; in [9] it was 45 µM; in data set [10] it was 1.2 µM. Further, the Vd in data set [7] was 1.9 L/kg.

Regarding `CCCC[C@H](NC(=O)O[C@H](Cc1nnc(-c2ccc(F)cc2)o1)C(C)(C)C)C(=O)C(=O)N[C@H](C)c1ccccc1`, the half-inhibitory concentration (IC50) in [6] is 0.53 µM; in data set [8], 33 µM; in data set [9], 9.8 µM; in data set [10], 34 µM.

On to `CCCC[C@H](NC(=O)O[C@H](Cc1nnc(-c2ccccc2)o1)C(C)(C)CC)C(=O)C(=O)N[C@H](C)c1ccccc1`, for which the 50% inhibitory concentration (IC50) was 0.0015 µM in data set [2]; 0.72 µM in data set [6]; 17 µM in data set [8]; 56 µM in data set [9]; 2.8 µM in data set [10].

For `CCCC[C@H](NC(=O)O[C@H](Cn1ccc(-c2ccc(C(F)(F)F)cc2)n1)C(C)(C)C)C(=O)C(=O)Nc1ccccn1`, in data set [1] (read-out: FS-SIF), the solubility thermodynamic was 380 µg/mL (≈ 662 µM). Also, the IC50 was 0.0081 µM in data set [2]; 3.7 µM in [6]; 240 µM in [8]; 107 µM in data set [9]; 4.5 µM in data set [10]. In data set [3], this molecule registered a bioavailability of 34%. Moreover, in data set [4], the half-life is 3.5 h. Moreover, the clearance in data set [5] came to 41 mL/min/kg. Besides, in [7], the Vd was 1.8 L/kg.

Consider `CCCC[C@H](NC(=O)O[C@H](Cc1nnc(-c2ccc(F)cc2)o1)C(C)(C)C)C(=O)C(=O)NCc1cccnc1`, for which the solubility thermodynamic in [1] (read-out: FS-SIF) is 490 µg/mL (≈ 908 µM). Further, in [3], the bioavailability is 46%. The molecule also showed a half-life in [4] of 3.83 h. Moreover, the clearance in data set [5] is 11 mL/min/kg. The IC50 worked out at 2.7 µM in data set [6], 130 µM in data set [8], 18 µM in data set [9] and 14 µM in [10]. For the same molecule, in data set [7], the Vd was found to be 1.4 L/kg.

Consider `CCCC[C@H](NC(=O)O[C@H](Cc1nnc(-c2ccccc2)o1)C(C)C)C(=O)C(=O)N[C@H](C)c1ccccc1`, for which the IC50 worked out at 0.00083 µM in [2]; 3.7 µM in [6]; 17 µM in data set [8]; 31 µM in data set [9]; 5.6 µM in data set [10].

Regarding `CCCC[C@H](NC(=O)O[C@H](Cn1cc(-c2ccc(C(F)(F)F)cc2)cn1)C(C)(C)C)C(=O)C(=O)Nc1ccn[nH]1`, in data set [1] (read-out: FS-SIF), the solubility thermodynamic is 97 µg/mL (≈ 172 µM). Further, the IC50 in data set [2] was 0.032 µM; in data set [6] it was 0.078 µM; in data set [8], 36 µM; in data set [9], 10 µM; in data set [10], 0.43 µM. For the same molecule, in data set [3], the bioavailability worked out at 45%. The half-life in [4] was determined as 5.67 h. In data set [5], this molecule displayed a clearance of 9.1 mL/min/kg. For the same molecule, the Vd in [7] was 2.1 L/kg.

For the molecule `CCCC[C@H](NC(=O)O[C@H](CN1CCN(c2ccc(C(F)(F)F)cc2)C1=O)C(C)(C)C)C(=O)C(=O)Nc1ccn[nH]1`, the solubility thermodynamic in [1] (read-out: FS-SIF) is 43 µg/mL (≈ 74.1 µM). This molecule also gave a bioavailability in [3] of 27%. This molecule showed a half-life in [4] of 5.67 h. Also, the clearance in data set [5] worked out at 55 mL/min/kg. Also, the half-maximal inhibitory concentration (IC50) in data set [6] turned out to be 0.54 µM; in data set [8] it was 37 µM; in [9], 60 µM; in data set [10], 1.7 µM. In data set [7], the Vd turned out to be 5 L/kg.

Consider `CCCC[C@H](NC(=O)O[C@H](Cn1cnc(-c2ccc(C(F)(F)F)cc2)c1)C(C)(C)C)C(=O)C(=O)Nc1ccn[nH]1`, for which, in data set [1] (read-out: FS-SIF), the solubility thermodynamic was 130 µg/mL (≈ 231 µM). The same molecule came in with a bioavailability in data set [3] of 55%. For the same molecule, in [4], the half-life is 7.67 h. The same molecule registered a clearance in [5] of 15 mL/min/kg. Further, the half-inhibitory concentration (IC50) in [6] was found to be 0.16 µM; in data set [8] it was 10 µM; in data set [9] it was 27 µM; in [10], 0.13 µM. In addition, in data set [7], the Vd worked out at 2.4 L/kg.

For `CCCC[C@H](NC(=O)O[C@H](Cn1ccc(-c2ccc(C(F)(F)F)cc2)n1)C(C)(C)C)C(=O)C(=O)Nc1ccn[nH]1`, the solubility thermodynamic in data set [1] (read-out: FS-SIF) is 110 µg/mL (≈ 196 µM). Also, the IC50 in data set [2] was 0.072 µM; in data set [6], 0.21 µM; in data set [8] it was 8.7 µM; in data set [9], 20 µM; in [10], 0.17 µM. In data set [3], the bioavailability turned out to be 9.6%. This molecule also displayed a T1/2 in data set [4] of 1.52 h. Also, the CL in data set [5] amounted to 0.11 mL/min/kg. Moreover, the VSS in data set [7] stood at 0.32 L/kg.

`CCCC[C@H](NC(=O)O[C@H](Cc1nnc(-c2ccc(C(F)(F)F)cc2)o1)C(C)(C)C)C(=O)C(=O)N[C@H](C)c1ccccc1`: the IC50 in data set [6] came out at 1.6 µM; in data set [8] it was 190 µM; in data set [9], 32 µM; in data set [10] it was 5 µM.

`CCCC[C@H](NC(=O)O[C@H](Cn1ccc(-c2ccc(C(F)(F)F)cc2)n1)C(C)(C)C)C(=O)C(=O)NCc1ccno1`: in data set [1], the solubility thermodynamic is 180 µg/mL (≈ 312 µM). The IC50 amounted to 0.0058 µM in data set [2]; 19 µM in data set [6]; 1000 µM in [8]; 870 µM in data set [9]; 36 µM in data set [10]. The molecule also came in with a bioavailability in [3] of 40%. Moreover, the half-life in data set [4] amounted to 6.67 h. Moreover, the clearance in data set [5] was 3.2 mL/min/kg. In addition, the Vd in data set [7] is 1.7 L/kg.

Turning to `CCCC[C@H](NC(=O)O[C@H](Cc1nnc(-c2ccc(C(F)(F)F)cc2)o1)C(C)(C)C)C(=O)C(=O)NN1CCOC1=O`, in data set [1] (read-out: FS-SIF), the solubility thermodynamic was 170 µg/mL (≈ 291 µM). The same molecule showed a bioavailability in [3] of 79%. The half-life in [4] amounted to 6.83 h. Also, the clearance in [5] turned out to be 11 mL/min/kg. Further, the IC50 in [6] is 1.2 µM; in [8] it was 160 µM; in data set [9] it was 5.2 µM; in [10] it was 7.1 µM. In data set [7], the Vd was 3.1 L/kg.

Turning to `CCCC[C@H](NC(=O)OC(Cc1nnc(-c2ccc(F)cc2)o1)C(C)(C)C)C(=O)C(=O)N[C@H]1CCCNC1=O` (stereo partly specified), the solubility thermodynamic in data set [1] (read-out: FS-SIF) is 620 µg/mL (≈ 1140 µM). Also, the half-maximal inhibitory concentration (IC50) in data set [2] is 0.00065 µM; in [6], 0.81 µM; in [8] it was 15 µM; in data set [9], 6.2 µM; in [10], 1.3 µM. The bioavailability in data set [3] is 17%. Further, the half-life in [4] amounted to 2.33 h. The molecule further came in with a clearance in data set [5] of 35 mL/min/kg. Also, the Vd in data set [7] amounted to 1.4 L/kg.
